{"source": "paper PMC4007060", "about": "(Journal of neuroimmune pharmacology : the official journal …, 2010)", "key": {"[1]": {"test_system": "mouse spleen cells, antibody response to sheep red blood cells", "settings": "morphine positive control; ref Rahim et al, 2001; cited from earlier work"}, "human monocytes": {"test_system": "human monocytes", "settings": "10^−6 M naloxone; ref Trombella et al, 2005; cited from earlier work"}, "ORL-1 [2]": {"test_system": "ORL-1", "settings": "in vitro; ref Knoflach et al, 1996; Reinscheid et al, 1995; cited from earlier work"}, "ORL-1 [3]": {"test_system": "ORL-1", "settings": "in vivo; ref Chen et al, 2001; cited from earlier work"}, "mouse spleen cells [4]": {"test_system": "mouse spleen cells", "settings": "2 hrs pretreatment, same PFC assay; ref Eisenstein et al, 1995; cited from earlier work"}, "[5]": {"test_system": "C-4 A-APA (affinity-purified rabbit antiserum to N/OFQ)", "test": "Solid-phase RIA, displacement of", "type": "binding", "settings": "for cross-reactivity in RIA: competitive peptide 1 × 10^−6 M to 1.5 × 10^−12 M"}, "C-1 A-APA": {"test_system": "C-1 A-APA", "test": "Dot-blot cross-reactivity, C-1 A-APA", "type": "binding, rabbit", "settings": "membrane-spotted peptides"}, "[6]": {"test_system": "C-1 A-APA (affinity-purified rabbit antiserum to N/OFQ)", "test": "Solid-phase RIA, displacement of", "type": "binding", "settings": "for cross-reactivity in RIA: competitive peptide 1 × 10^−6 M to 1.5 × 10^−12 M"}, "C-4 A-APA": {"test_system": "C-4 A-APA", "test": "Dot-blot cross-reactivity, C-4 A-APA", "type": "binding, rabbit", "settings": "membrane-spotted peptides"}, "kappa opioid receptor": {"test_system": "kappa opioid receptor", "settings": "ref Mollereau et al, 1994; Pan et al, 1995; cited from earlier work"}, "[7]": {"test_system": "Con A activated rat splenocytes", "settings": "ref Miller and Fulford, 2007, cited from earlier work"}, "astrocytes": {"test_system": "astrocytes", "settings": "peripheral administration of an inflammatory stimulus; ref Fu et al, 2007; cited from earlier work"}, "astrocyte cultures": {"test_system": "astrocyte cultures", "settings": "lipopolysaccharide in vitro; ref Fu et al, 2007; cited from earlier work"}, "[8]": {"test_system": "mouse spleen (TNF-α and IFN-γ mRNA)", "settings": "in vivo; cited from earlier work"}, "delta opioid receptor": {"test_system": "delta opioid receptor", "settings": "ref Mollereau et al, 1994; Pan et al, 1995; cited from earlier work"}, "[9]": {"test_system": "human monocytes and monocyte-like cell lines (CCL2/MCP-1, CCL5/RANTES)", "settings": "CCL2/MCP-1 and CCL5/RANTES; ref Kaminsky and Rogers, 2008; cited from earlier work"}, "ORL-1 receptor": {"test_system": "ORL-1 receptor", "settings": "cited from earlier work"}, "human T cells": {"test_system": "human T cells", "settings": "cited from earlier work"}, "mouse spleen cells [10]": {"test_system": "mouse spleen cells", "test": "Primary in vitro plaque-forming cell", "type": "cell-based, mouse (C3HeB/FeJ)", "settings": "primary PFC assay"}, "mu opioid receptor": {"test_system": "mu opioid receptor", "settings": "ref Mollereau et al, 1994; Pan et al, 1995; cited from earlier work"}, "[11]": {"test_system": "mouse spleen cells, antibody response to sheep red blood cells", "settings": "s.c. Alzet pump, 48 hr"}}, "note": "Entries after “also recorded” stand apart in the source; their conditions may differ. Where two headings read alike, the source gives them in different places."}
{"molecule": "CN1CC[C@]23c4c5ccc(O)c4O[C@H]2[C@@H](O)C=C[C@H]3[C@H]1C5", "note": "[morphine]", "values": [{"measurement": "dose producing maximal immunosuppression", "setting": "[1]", "result": 0.5, "unit": "mg/kg/day"}]}
{"molecule": "C=CCN1CC[C@]23c4c5ccc(O)c4O[C@H]2C(=O)CC[C@@]3(O)[C@H]1C5", "note": "[naloxone]", "values": [{"measurement": "effect of naloxone on chemotaxis induced by the peptide", "setting": "human monocytes", "result": "did not block human monocyte chemotaxis"}, {"measurement": "naloxone sensitivity of ORL-1 activity", "setting": "ORL-1 [2]", "result": "naloxone insensitive"}, {"measurement": "naloxone sensitivity of ORL-1 activity", "setting": "ORL-1 [3]", "result": "naloxone insensitive"}, {"measurement": "block of immunosuppressive effect of morphine and U50488", "setting": "mouse spleen cells [4]", "result": "completely blocked the immunosuppressive effect of morphine and of the kappa agonist, U50488"}]}
{"molecule": "BAM-18", "values": [{"measurement": "cross-reactivity in RIA", "setting": "[5]", "result": "did not show significant cross-reactivity; also recorded: No significant cross-reactivities were detected"}, {"measurement": "dot-blot reactivity", "setting": "C-1 A-APA", "result": "not to classical opioid"}, {"measurement": "cross-reactivity in RIA", "setting": "[6]", "result": "no significant cross-reactivity; also recorded: No significant cross-reactivities were detected"}, {"measurement": "dot-blot reactivity", "setting": "C-4 A-APA", "result": "not to classical opioid"}]}
{"molecule": "Dynorphin A1-17", "values": [{"measurement": "cross-reactivity in RIA", "setting": "[5]", "result": "did not show significant cross-reactivity"}, {"measurement": "cross-reactivity in RIA", "setting": "[5]; listed as Dynorphin A1-17", "result": "No significant cross-reactivities were detected"}, {"measurement": "cross-reactivity in RIA", "setting": "[6]", "result": "no significant cross-reactivity"}, {"measurement": "cross-reactivity in RIA", "setting": "[6]; listed as Dynorphin A1-17", "result": "No significant cross-reactivities were detected"}]}
{"molecule": "Tyr-Gly-Gly-Gly-Met [Met-enkephalin, Met-Enkephalin]", "values": [{"measurement": "dot-blot reactivity", "setting": "C-1 A-APA", "result": "not to classical opioid"}, {"measurement": "dot-blot reactivity", "setting": "C-4 A-APA", "result": "not to classical opioid"}]}
{"molecule": "Tyr-Gly-Gly-Phe-Leu [Leu-enkephalin, Leu-Enkephalin]", "values": [{"measurement": "cross-reactivity in RIA", "setting": "[5]", "result": "did not show significant cross-reactivity"}, {"measurement": "cross-reactivity in RIA", "setting": "[5]; listed as Leu-Enkephalin", "result": "No significant cross-reactivities were detected"}, {"measurement": "dot-blot reactivity", "setting": "C-1 A-APA", "result": "not to classical opioid"}, {"measurement": "cross-reactivity in RIA", "setting": "[6]", "result": "no significant cross-reactivity"}, {"measurement": "cross-reactivity in RIA", "setting": "[6]; listed as Leu-Enkephalin", "result": "No significant cross-reactivities were detected"}, {"measurement": "dot-blot reactivity", "setting": "C-4 A-APA", "result": "not to classical opioid"}]}
{"molecule": "nociceptin/orphanin FQ [N/OFQ]", "values": [{"measurement": "binding", "setting": "kappa opioid receptor", "result": "does not bind"}, {"measurement": "inhibition of proliferation", "setting": "[7]; Con A activated rat splenocytes", "result": "inhibit the proliferation"}, {"measurement": "inhibition of IL-2 production", "setting": "[7]; in vitro", "result": "inhibit the proliferation of Con A activated rat splenocytes, as well as the production of IL-2"}, {"measurement": "mRNA for TNF-α, IL-1β, and IL-6", "setting": "astrocytes", "result": "decrease expression of mRNA"}, {"measurement": "IC20", "setting": "[5]; read-out: smallest measurable displacement, IC20, solid-phase RIA, C-4 A-APA", "result": 0.062, "unit": "nM"}, {"measurement": "IC80", "setting": "[5]; solid-phase RIA, C-4 A-APA", "result": 0.71, "unit": "nM"}, {"measurement": "mRNA for TNF-α, IL-1β, and IL-6", "setting": "astrocyte cultures", "result": "decrease expression of mRNA"}, {"measurement": "mRNA for TNF-α and IFN-γ in spleens", "setting": "[8]", "result": "increased levels of mRNA"}, {"measurement": "binding", "setting": "delta opioid receptor", "result": "does not bind"}, {"measurement": "chemokine production", "setting": "[9]", "result": "suppress the production of chemokine proteins"}, {"measurement": "forskolin-induced cAMP accumulation", "setting": "ORL-1 receptor", "result": "inhibition of forskolin-induced cAMP accumulation"}, {"measurement": "CD28 expression", "setting": "human T cells", "result": "up-regulated expression of the co-stimulatory molecule CD28"}, {"measurement": "CTLA-4 expression", "setting": "human T cells", "result": "upregulate CTLA-4"}, {"measurement": "PGE2 induction", "setting": "human T cells", "result": "induced PGE2"}, {"measurement": "proliferation", "setting": "human T cells", "result": "increased proliferation"}, {"measurement": "suppression of antibody formation", "setting": "mouse spleen cells [10]", "result": "suppressed antibody formation to sheep red blood cells; also recorded: suppresses both the secondary and primary plaque-forming cell assay"}, {"measurement": "dot-blot reactivity", "setting": "C-1 A-APA", "result": "showed reactivity to the three nociceptin peptides"}, {"measurement": "IC80", "setting": "[6]; solid-phase RIA, C-1 A-APA", "result": 2.9, "unit": "nM"}, {"measurement": "dot-blot reactivity", "setting": "C-4 A-APA", "result": "showed reactivity to the three nociceptin peptides"}, {"measurement": "binding", "setting": "mu opioid receptor", "result": "does not bind"}, {"measurement": "dose of maximal immunosuppression", "setting": "[11]", "result": 0.05, "unit": "mg/kg/day"}]}
